# Entries after “also recorded” stand apart in the source; their conditions may differ.
# Legend:
# GSK3-alpha [1] = biological target: T1, GSK3-alpha (Homo sapiens, UniProt P49840); settings: cited from earlier work; for IC50: potency = IC50, literature values
# [2] = system: Lgr5-GFP inner ear progenitor cells; experiment: Expansion of Lgr5-GFP inner ear progenitor cells in Matrigel 3D culture; format: cell-based, mouse; settings: 10 days culture, background of EGF, bFGF, IGF-1 and VPA; FIGS. 1A and 2A
# Procedure: Isolation of stem cells from the inner ear: All animal studies were conducted under an approved institutional protocol according to National Institutes of Health guidelines. For experiments with neonatal mice (postnatal days 1-3), the cochleae were dissected in HBSS and the organ of Corti was separated from the stria vascularis and the modiolus. The organs of Corti were then treated with Cell Recovery Solution (Corning) for 1 h to separate cochlear epithelium from the underlying mesenchyme. Epithelia were then collected and treated with TrypLE (Life Technologies) for 15-20 minutes at 37° C. Single cells obtained by mechanical trituration were filtered (40 μm) and suspended in Matrigel (Corning) for 3D culture.
# Cells were cultured in a 1:1 mixture of DMEM and F12, supplemented with Glutamax (GIBCO), N2, B27 (Invitrogen), EGF (50 ng/mL; Chemicon), bFGF (50 ng/mL; Chemicon), IGF1 (50 ng/mL; Chemicon) and a GSK3-alpha inhibitor. […]
# Lgr5-positive cells were quantified after 10 days (D10) in culture in multiple conditions. […] The cells were then stained with propidium iodide (PI) and analyzed using a flow cytometer for Lgr5-GFP expression. The number of GFP-positive cells and the percentage of GFP-positive cells were quantified. […]
# Lgr5 cell quantification: Cell culture media was removed and Tryple was added. […] Live Lgr5-GFP cell number was counted using PI staining and the Lgr5-GFP.
# GSK3-beta = GSK3-beta (Homo sapiens, UniProt P49841); settings: potency = IC50; literature values; cited from earlier work
# GSK3-alpha [3] = biological target: T1, GSK3-alpha; experiment: GSK3-alpha potency (IC50), kinase assay; format: biochemical; settings: GSK3-alpha/GSK3-beta selectivity ratio = IC50 GSK3-beta divided by IC50 GSK3-alpha
# noise-damaged inner ear = experiment: Hearing recovery (ABR threshold) in noise damaged CBA/CaJ mice; format: in vivo; settings: trans-tympanic Poloxamer gel 24 h after noise exposure, ABR at 30 days, 5-40 kHz; FIG. 4
# Procedure: For the mouse studies, a 17-19% (w/w) stock solution of poloxamer 407 gel (Sigma-Aldrich) was prepared by slowly adding it to cold 1× phosphate-buffered saline at pH 7.4. This solution is liquid when refrigerated or at room temperature but solidifies at body temperature. The gel was tinted blue with Evans blue dye (50 ppm) for visualization during administration.
# A formulation was then prepared with 87.6 mg/ml VPA and 55.6 mg/ml CHIR99021 or 87.6 mg/ml VPA and 50 mg/ml GSK3 inhibitor XXII in 17-19% Poloxamer 407 with 5% DMSO.
# CBA/CaJ mice were deafened in a noise chamber by exposure to an 8-16 kHz octave band noise band for 2 hours at 120 dB SPL. 24 hours after noise exposure, their hearing was assessed by measuring auditory brainstem responses (ABRs). The minimum sound pressure level (SPL) required for visual detection of ABR Wave I was determined at 5, 10, 20, 28.3, and 40 kHz. Following ABR measurements, a trans-tympanic injection of a Poloxamer gel drug mixture was delivered to fill the middle ear cavity. After 30 days, ABR was assessed and the improvement in hearing threshold from 24 hrs to 30 days after noise exposure was determined.
# [4] = system: organ of Corti isolated from Lgr5-GFP mice; experiment: Cochlear explant: organ of Corti treated ex vivo; format: cell-based, mouse
# Procedure: For cochlear explant studies, organ of Corti isolated from Lgr5-GFP mice were treated with either CHIR99021+VPA or GSK3-inhibitor XXII+VPA for 3 days. Organ of Corti were plated on a cover slip and bathed in media containing the drugs. Growth factors were not present. CHIR99021 (3 uM), GSK3-inhibitor XXII (0.3 uM), VPA (1 mM).
# T1 sequence (P49840 whole entry, species assumed): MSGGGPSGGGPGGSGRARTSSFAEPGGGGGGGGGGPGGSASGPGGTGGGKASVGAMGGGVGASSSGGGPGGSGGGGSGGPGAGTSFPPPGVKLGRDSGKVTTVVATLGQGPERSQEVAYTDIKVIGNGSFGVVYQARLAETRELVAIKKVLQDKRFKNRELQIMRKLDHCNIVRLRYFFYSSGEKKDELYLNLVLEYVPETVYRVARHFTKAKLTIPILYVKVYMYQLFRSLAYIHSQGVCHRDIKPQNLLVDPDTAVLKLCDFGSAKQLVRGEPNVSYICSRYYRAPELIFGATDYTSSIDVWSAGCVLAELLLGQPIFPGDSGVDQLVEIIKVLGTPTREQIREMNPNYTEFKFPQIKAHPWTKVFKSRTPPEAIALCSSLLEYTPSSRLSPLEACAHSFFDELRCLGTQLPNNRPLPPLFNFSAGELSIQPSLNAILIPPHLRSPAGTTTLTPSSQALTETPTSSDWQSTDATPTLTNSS
# Chain of GSK3-beta (P49841 whole entry, species assumed): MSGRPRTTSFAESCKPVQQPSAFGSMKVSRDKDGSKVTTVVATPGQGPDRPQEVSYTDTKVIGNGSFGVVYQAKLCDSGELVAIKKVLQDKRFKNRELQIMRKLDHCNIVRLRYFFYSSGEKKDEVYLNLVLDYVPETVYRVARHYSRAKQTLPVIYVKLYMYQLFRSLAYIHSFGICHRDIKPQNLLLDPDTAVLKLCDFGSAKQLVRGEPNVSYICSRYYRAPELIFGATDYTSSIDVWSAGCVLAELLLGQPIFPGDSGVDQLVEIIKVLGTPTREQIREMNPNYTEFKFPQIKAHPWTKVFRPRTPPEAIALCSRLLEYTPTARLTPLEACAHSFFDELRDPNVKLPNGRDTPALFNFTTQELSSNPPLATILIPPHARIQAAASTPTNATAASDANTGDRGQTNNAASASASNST
SMILES,GSK3α versus GSK3β inhibition preference (GSK3-alpha [1]),Expansion of Lgr5-GFP cells / Lgr5-GFP+ colonies [2],IC50 (GSK3-beta),IC50 (GSK3-alpha [1]),also measured
N#Cc1ccc2[nH]c(O)c(-c3ccc(CN4CCOCC4)cn3)c2c1 [AZD1080],preferentially inhibits GSK3α,large colonies of Lgr5-GFP+ cells were observed,–,–,–
COc1ccccc1[C@@H]1C2=C(CC(C)(C)CC2=O)Nc2n[nH]c(C(F)(F)F)c21 [BRD1172],–,–,10 nM,3 nM,Ratio of Alpha to Beta (GSK3-alpha [3]): 3.3
Cc1c[nH]c(-c2cnc(NCCNc3ccc(C#N)cn3)nc2-c2ccc(Cl)cc2Cl)n1 [CHIR99021],preferentially inhibits GSK3β,–,–,–,–
Cc1ccc(C(=O)Nc2c[nH]nc2C(=O)NCCCOC(C)C)cn1 [GSK-3b XXII],equally inhibits GSK3α and GSK3β,large colonies of Lgr5-GFP+ cells were observed,–,2.3 nM,"hearing recovery (noise-damaged inner ear): evidence of hearing recovery; Lgr5-GFP expression in organ of Corti ([4]; 3 days, 0.3 uM with VPA 1 mM, FIG. 3): increased Lgr5-GFP expression; rows of inner hair cells ([4]; 3 days, normal 1 row, FIG. 3): 2 rows; rows of outer hair cells ([4]; 3 days, normal 3 rows, FIG. 3): 6 rows; hair cell number in organ of Corti ([4]; in combination with VPA, FIG. 3, listed as GSK3 inhibitor XXII): increase in hair cell number; also recorded: increased number of hair cells"
O=C1NC(=O)[C@@H](c2cn3c4c(cccc24)CCC3)[C@@H]1c1c[nH]c2ccccc12 [Tivantinib],–,–,1870 nM,659 nM,–
